Key:
CB1 (mutant) = CB1 (mutant) (Homo sapiens, UniProt P21554); experiment: R-SAT functional receptor assay, CB1 (mutant, truncated after amino acid 417); type: cell-based; details: Table 1, CB1 (mutant); for IC50: inhibition of constitutive receptor response, read-out: pIC50 (converted); for % Inhibition: relative to the ligand SR141716 (100%)
CB1 (wild-type) = CB1 (wild-type) (Homo sapiens, UniProt P21554); experiment: R-SAT functional receptor assay, CB1 (wild-type); type: cell-based; details: for IC50: Table 1, inhibition of constitutive receptor response; for Emax: Table 1, relative to the ligand SR141716 (100%), read-out: % Inhibition
native CB1 receptors = native CB1 receptors (Rattus norvegicus, UniProt P20272); experiment: CB1 receptor rat binding assay ([3H]SR141716A, rat brain membranes); details: rat brain membranes; 3 nM [3H]SR141716A; read-out: Rat Brain pKi (converted)
[1] = system: fasted Sprague-Dawley rats; experiment: Acute feeding study; type: in vivo; details: Table 3 feeding data
Method: Male, Sprague-Dawley rats (90-120 g) served as subjects for these studies. Rats were fasted for a period of 16 hrs (water was always available). After the fasting period, test compounds were administered either intraperitoneally (ip) or orally (po). Immediately following compound administration, the rats were returned to their home cage. Following 30 min after compound administration, the rats were removed from their home cages and placed individually into clean cages with a pre-measured amount of food. Food weights were obtained (to the nearest 0.1 g) at various time points. Food consumption was monitored for a period of up to 2 hrs (i.e., 2.5 hr after test compound administration).

in vitro [2] = details: mouse, microsomes, pH 7.4
in vitro [3] = details: human, microsomes, pH 7.4
in vitro [4] = details: rat, microsomes, pH 7.4
hERG = hERG (Homo sapiens, UniProt Q12809); experiment: in vitro; details: pH 7.4
hERG, sequence (Q12809 whole entry): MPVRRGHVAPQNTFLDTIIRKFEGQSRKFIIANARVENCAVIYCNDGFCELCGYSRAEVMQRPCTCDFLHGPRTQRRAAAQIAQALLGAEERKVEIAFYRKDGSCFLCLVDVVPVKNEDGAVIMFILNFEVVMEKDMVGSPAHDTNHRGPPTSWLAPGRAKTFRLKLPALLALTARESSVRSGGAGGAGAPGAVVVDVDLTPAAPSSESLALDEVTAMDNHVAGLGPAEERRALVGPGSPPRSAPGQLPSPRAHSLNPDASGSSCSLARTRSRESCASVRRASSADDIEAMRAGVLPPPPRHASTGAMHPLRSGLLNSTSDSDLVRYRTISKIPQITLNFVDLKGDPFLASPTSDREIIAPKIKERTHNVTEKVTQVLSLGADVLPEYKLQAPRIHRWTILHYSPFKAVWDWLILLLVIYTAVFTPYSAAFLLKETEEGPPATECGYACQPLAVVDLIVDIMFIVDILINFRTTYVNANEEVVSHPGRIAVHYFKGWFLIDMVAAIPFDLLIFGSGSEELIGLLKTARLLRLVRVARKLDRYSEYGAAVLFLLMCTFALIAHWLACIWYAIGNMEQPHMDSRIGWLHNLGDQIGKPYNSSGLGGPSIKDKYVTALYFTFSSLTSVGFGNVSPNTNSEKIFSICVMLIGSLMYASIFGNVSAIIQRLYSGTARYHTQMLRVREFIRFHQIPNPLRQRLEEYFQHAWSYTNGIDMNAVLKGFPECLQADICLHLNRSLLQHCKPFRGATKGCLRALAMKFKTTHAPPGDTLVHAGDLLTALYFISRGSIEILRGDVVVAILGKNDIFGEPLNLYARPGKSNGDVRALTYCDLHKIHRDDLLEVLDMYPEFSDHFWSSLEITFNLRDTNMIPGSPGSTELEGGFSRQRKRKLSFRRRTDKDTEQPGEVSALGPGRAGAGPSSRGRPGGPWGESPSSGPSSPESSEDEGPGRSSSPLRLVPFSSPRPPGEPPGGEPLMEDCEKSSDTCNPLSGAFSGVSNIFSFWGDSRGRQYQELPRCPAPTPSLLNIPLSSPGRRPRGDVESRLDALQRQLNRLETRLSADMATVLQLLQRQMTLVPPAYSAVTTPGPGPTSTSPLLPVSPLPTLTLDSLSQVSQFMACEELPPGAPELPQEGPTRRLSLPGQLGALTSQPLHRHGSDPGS

CB1 (mutant), sequence (P21554 1-417, change not shown): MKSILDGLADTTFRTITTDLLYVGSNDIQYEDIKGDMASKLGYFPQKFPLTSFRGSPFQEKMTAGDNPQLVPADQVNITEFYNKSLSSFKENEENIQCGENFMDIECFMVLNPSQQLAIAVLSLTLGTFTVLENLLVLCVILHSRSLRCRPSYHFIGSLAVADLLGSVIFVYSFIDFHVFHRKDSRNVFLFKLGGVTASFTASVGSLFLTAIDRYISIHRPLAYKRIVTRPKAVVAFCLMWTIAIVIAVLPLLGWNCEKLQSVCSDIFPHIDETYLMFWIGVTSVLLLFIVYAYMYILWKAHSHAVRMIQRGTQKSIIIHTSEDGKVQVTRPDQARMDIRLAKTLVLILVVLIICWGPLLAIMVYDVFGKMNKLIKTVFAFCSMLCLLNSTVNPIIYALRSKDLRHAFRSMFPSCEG
CB1 (wild-type), sequence (P21554 whole entry): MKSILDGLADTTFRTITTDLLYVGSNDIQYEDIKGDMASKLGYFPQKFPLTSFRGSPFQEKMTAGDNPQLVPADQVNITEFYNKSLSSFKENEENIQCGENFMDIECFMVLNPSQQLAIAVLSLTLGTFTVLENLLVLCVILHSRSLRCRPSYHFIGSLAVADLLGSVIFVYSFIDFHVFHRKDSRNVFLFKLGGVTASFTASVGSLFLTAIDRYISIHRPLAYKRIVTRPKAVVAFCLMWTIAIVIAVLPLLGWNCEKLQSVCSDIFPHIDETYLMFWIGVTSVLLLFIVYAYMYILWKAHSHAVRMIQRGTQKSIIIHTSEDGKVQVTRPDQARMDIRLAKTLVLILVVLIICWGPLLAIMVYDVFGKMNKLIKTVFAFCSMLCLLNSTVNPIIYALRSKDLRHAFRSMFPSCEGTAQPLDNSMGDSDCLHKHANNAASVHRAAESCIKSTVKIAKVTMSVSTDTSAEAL
native CB1 receptors, sequence (P20272 whole entry): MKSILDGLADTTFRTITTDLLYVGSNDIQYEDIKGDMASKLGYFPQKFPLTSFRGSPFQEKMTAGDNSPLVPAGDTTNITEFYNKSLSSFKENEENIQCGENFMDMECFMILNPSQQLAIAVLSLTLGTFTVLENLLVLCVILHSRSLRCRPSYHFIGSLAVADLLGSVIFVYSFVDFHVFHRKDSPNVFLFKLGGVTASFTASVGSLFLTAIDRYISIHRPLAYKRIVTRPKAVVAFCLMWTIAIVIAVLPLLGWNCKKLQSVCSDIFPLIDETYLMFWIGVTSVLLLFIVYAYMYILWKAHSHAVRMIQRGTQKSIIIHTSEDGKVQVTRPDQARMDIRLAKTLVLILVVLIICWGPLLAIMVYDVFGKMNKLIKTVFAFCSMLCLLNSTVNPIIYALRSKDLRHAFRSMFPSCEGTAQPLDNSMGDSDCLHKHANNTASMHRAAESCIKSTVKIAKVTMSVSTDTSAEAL

| SMILES | Feeding ID50 [1] [mg/kg] | microsomal CLint at 1 μM (in vitro [3]) [µL/min/mg] | microsomal CLint at 1 μM (in vitro [4]) [µL/min/mg] | further results |
| --- | --- | --- | --- | --- |
| CC(C)CNC(=O)c1ccc2c(c1)N=C(c1ccc(Cl)s1)c1ccccc1S2 [Example 11, 11-(5-Chlorothiophen-2-yl)-dibenzo[b,f][1,4]thiazepine-8-carboxylic acid isobutylamide] | – | – | – | IC50 (CB1 (mutant)): 126 nM; % Inhibition (CB1 (mutant)): 95%; IC50 (CB1 (wild-type)): 15.8 nM; Emax (CB1 (wild-type)): 84%; Ki (native CB1 receptors): 10 nM |
| CCOC(=O)N1CCC(NC(=O)c2ccc3c(c2)N=C(Cl)c2ccccc2S3)CC1 [Example 14, 4-[(11-chloro-dibenzo[b,f][1,4]thiazepine-8-carbonyl)-amino]-piperidine-1-carboxylic acid ethyl ester] | – | – | – | IC50 (CB1 (mutant)): 316 nM; % Inhibition (CB1 (mutant)): 94%; IC50 (CB1 (wild-type)): 126 nM; Emax (CB1 (wild-type)): 88% |
| Cc1ccc(N2CCN(C(=O)c3ccc4c(c3)N=C(C3CCCCC3)c3ccccc3S4)CC2)c(C)c1 [Example 18, (11-Cyclohexyl-dibenzo[b,f][1,4]thiazepin-8-yl)-[4-(2,4-dimethyl-phenyl)-piperazin-1-yl]methanone] | – | – | – | IC50 (CB1 (mutant)): 200 nM; % Inhibition (CB1 (mutant)): 99%; IC50 (CB1 (wild-type)): 39.8 nM; Emax (CB1 (wild-type)): 99% |
| CCCCNC(=O)c1ccc2c(c1)N=C(c1ccc(Cl)cc1)c1ccccc1S2 [drawing 536] | 2.4 | – | – | – |
| O=C(NN1CCCCC1)c1ccc2c(c1)N=C(C1CCCCC1)c1ccccc1S2 [drawing 537] | 12 | – | – | – |
| CC(C)CCNC(=O)c1ccc2c(c1)N=C(c1cccc(Cl)c1)c1ccccc1S2 [drawing 538] | 5.3 | – | – | – |
| O=C(NCc1ccc(F)cc1)c1ccc2c(c1)N=C(c1ccc(Cl)cc1)c1ccccc1S2 [drawing 539] | 8 | – | – | – |
| CC(C)CNC(=O)c1ccc2c(c1)N=C(c1ccc(Cl)c(Cl)c1)c1ccccc1S2 [drawing 540] | 8.4 | – | – | – |
| O=C(NCc1cccnc1)c1ccc2c(c1)N=C(c1ccc(Cl)c(Cl)c1)c1ccccc1S2 [drawing 541] | 14 | – | – | – |
| CC(C)CNC(=O)c1ccc2c(c1)N=C(c1ccc(Cl)cc1F)c1ccccc1S2 [drawing 542] | 5.8 | – | – | – |
| O=C(NN1CCCCC1)c1ccc2c(c1)N=C(c1ccc(Cl)cc1)c1ccccc1S2 [drawing 543] | 2.4 | – | – | – |
| CC(C)CNC(=O)c1ccc2c(c1)N=C(c1ccc(Cl)s1)c1ccccc1S2 [drawing 544] | 7.9 | – | – | – |
| CCCCNC(=O)c1ccc2c(c1)N=C(c1ccc(F)cn1)c1ccccc1S2 [drawing 545] | 6 | – | – | – |
| O=C(NN1CCCCC1)c1ccc2c(c1)N=C(c1ccc(Cl)s1)c1ccccc1S2 [drawing 1660] | – | 32 | 148 | microsomal CLint at 1 μM (in vitro [2]): 227 µL/min/mg |
| O=C(NN1CCCCCC1)c1ccc2c(c1)N=C(c1cccc(F)c1)c1ccccc1S2 [drawing 1693] | – | 84 | 241 | microsomal CLint at 1 μM (in vitro [2]): 160 µL/min/mg |
| CC(C)CCNC(=O)c1ccc2c(c1)N=C(c1cccc(F)c1)c1ccccc1S2 [drawing 1713] | – | 46 | 163 | microsomal CLint at 1 μM (in vitro [2]): 202 µL/min/mg |
| O=C(NC1CCC(F)(F)CC1)c1ccc2c(c1)N=C(c1cccc(Cl)c1)c1ccccc1S2 [drawing 1715] | – | 3 | 81 | – |

| SMILES | Feeding ID50 [1] [mg/kg] | microsomal CLint at 1 μM (in vitro [3]) [µL/min/mg] | microsomal CLint at 1 μM (in vitro [4]) [µL/min/mg] | further results |
| --- | --- | --- | --- | --- |
| C[C@@H]1CCC[C@H](C)N1NC(=O)c1ccc2c(c1)N=C(c1cccc(Cl)c1)c1ccccc1S2 [drawing 1720] | – | 390 | 254 | microsomal CLint at 1 μM (in vitro [2]): 684 µL/min/mg |
| CCN(CCNC(=O)c1ccc2c(c1)N=C(c1cccc(Cl)c1)c1ccccc1S2)c1ccccc1 [drawing 1751] | – | 157 | 368 | – |
| O=C(NCc1ccco1)c1ccc2c(c1)N=C(c1cccc(F)c1)c1ccccc1S2 [drawing 1754] | – | 68 | 140 | microsomal CLint at 1 μM (in vitro [2]): 197 µL/min/mg |
| CC(C)CNC(=O)c1ccc2c(c1)N=C(c1ccc(Cl)cc1)c1ccccc1S2 [drawing 1759] | – | 12 | 56 | microsomal CLint at 1 μM (in vitro [2]): 83 µL/min/mg |
| O=C(NCCc1ccccc1)c1ccc2c(c1)N=C(c1cccc(Cl)c1)c1ccccc1S2 [drawing 1763] | – | 53 | 110 | – |
| CC(C)CCNC(=O)c1ccc2c(c1)N=C(c1ccc(F)cc1)c1ccccc1S2 [drawing 1771] | – | 52 | 214 | – |
| O=C(NCc1ccccc1Cl)c1ccc2c(c1)N=C(c1ccc(Cl)cc1)c1ccccc1S2 [drawing 1782] | – | 17 | 33 | – |
| CC(C)CNC(=O)c1ccc2c(c1)N=C(c1ccc(Br)cc1)c1ccccc1S2 [drawing 1791] | – | 19 | 115 | – |
| O=C(NCc1ccccc1Cl)c1ccc2c(c1)N=C(c1ccccc1F)c1ccccc1S2 [drawing 1794] | – | 59 | 181 | – |
| CC(CNC(=O)c1ccc2c(c1)N=C(c1ccc(F)cc1)c1ccccc1S2)c1ccccc1 (stereo not shown) [drawing 1797] | – | 108 | 532 | – |
| O=C(NCc1cccc(Cl)c1)c1ccc2c(c1)N=C(N1CCCCC1)c1ccccc1S2(=O)=O [drawing 1798] | – | 77 | 217 | – |
| O=C(NN1CCCCC1)c1ccc2c(c1)N=C(c1ccc(F)cc1)c1ccccc1S2 [drawing 1815] | – | – | – | inhibition at 1 µM (hERG): 91% |
| CC(C)CNC(=O)c1ccc2c(c1)N=C(c1ccc(Cl)cc1)c1ccccc1S2 [drawing 1818] | – | – | – | inhibition at 1 µM (hERG): 69% |
| O=C(NN1CCCCCC1)c1ccc2c(c1)N=C(c1cccc(F)c1)c1ccccc1S2 [drawing 1827] | – | – | – | inhibition at 1 µM (hERG): 88% |
| O=C(NN1CCCCC1)c1ccc2c(c1)N=C(c1ccc(Cl)s1)c1ccccc1S2 [drawing 1829] | – | – | – | inhibition at 1 µM (hERG): 66% |
| O=C(NC1CCC(F)(F)CC1)c1ccc2c(c1)N=C(c1cccc(Cl)c1)c1ccccc1S2 [drawing 1838] | – | – | – | inhibition at 1 µM (hERG): 62% |
